Results on two molecules are retold here after article PMC8426472 (Molecular Therapy. Methods & Clinical Development, 2021).

The conditions of data set [1]: cited from earlier work.
The nature of data set [2]: Plasma Mfp levels in cynomolgus monkeys. It is filed as in vivo, cynomolgus macaques (Macaca fascicularis).
The conditions of data set [3]: cited from earlier work. The source holds these as a separate data set.
The test system of data set [4] is ORM1F1. As to conditions: cited from earlier work.
The nature of data set [5]: Brain Mfp levels in cynomolgus monkeys. In kind it is in vivo, cynomolgus macaques (Macaca fascicularis). As to conditions: monkey #1 versus monkeys #2 and #3, repeated oral Rtv 60 mg/kg + Mfp 100 mg/kg.
Data set [6] concerns GS-GDNF vector. The experiment in a line: Striatal GDNF induction from AAV-5-GS-GDNF vector after Mfp application. It is filed as in vivo, rat.
A short description of data set [7]: Plasma Mfp levels in hAAG-expressing. In kind it is in vivo, rat.
The conditions of data set [8]: cited from earlier work. This is another data set of the same source.
Data set [9] in a line: Plasma Mfp levels in rats. In kind it is in vivo, rat.
A short description of data set [10]: Brain tissue Mfp levels in rats. To be noted: 3 × 20 mg/kg i.p., t = 144 h. It is filed as in vivo, rat.
Data set [11] has as its system ORM1F2. To be noted: cited from earlier work.
For data set [12] the following is noted: cited from earlier work. The source holds these as a separate data set.
Data set [13] relates to ORM1S. As to conditions: cited from earlier work.
Data set [14] concerns ORM2-derived AAG variants. To be noted: cited from earlier work.
The conditions of data set [15]: cited from earlier work. This is another data set of the same source.

The structures appear in SMILES notation.

In the case of `CC#C[C@]1(O)CC[C@H]2[C@@H]3CCC4=CC(=O)CCC4=C3[C@@H](c3ccc(N(C)C)cc3)C[C@@]21C` [Mfp, mifepristone], in data set [1], the bioavailability in humans is on record as 40%, the clearance in human is on record as 0.04 L/h/kg body weight and the “plasma half-life (T1/2) in human” value is reported as 30 h. In addition, the “peak plasma Mfp level without Rtv” value in data set [2] (male cynomolgus monkeys, single oral 50 mg/kg Mfp) was 55 ng/mL. Also, the “peak plasma Mfp level with Rtv co-application” value in data set [2] (male cynomolgus monkeys, single oral 50 mg/kg Mfp + 30 mg/kg Rtv) is on record as 150 ng/mL. Further, the AUC – broadly, the area under the concentration-time curve, a measure of exposure – in data set [2] (male, cynomolgus monkey, plasma, po, 50 mg/kg) amounted to 655 ng·h/mL. Moreover, the “plasma Mfp levels on all 3 days” value in data set [2] (monkeys #2 and #3, oral Mfp 100 mg/kg + Rtv 60 mg/kg on 3 consecutive days) is given as “exceeding 500 ng/mL”. Moreover, in data set [3], the bioavailability in rats is 40%, the clearance in rats is given as 2.7 L/h/kg body weight and the “plasma half-life (T1/2) in rats” value is recorded as 4 h. The “binding of Mfp by ORM1F1” value in data set [4] is “high affinity”. The “difference in brain Mfp levels after the same dosage” value in [5] is listed as 6- to 7 fold. Further, the “effect of hAAG on GS-GDNF activation at lower dosage” value in data set [6] (3 × 5 mg/kg Mfp i.p., hAAG-expressing vs native rats) is given as “no negative effect”. The “striatal GDNF levels in hAAG-expressing vs native animals” value in [6] (3 × 20 mg/kg Mfp i.p.) is given as “similar”. For the same molecule, the “induced GDNF levels in aged (15 months) as compared to young (2 months) animals” value in data set [6] (female and male rats, 3 × 20 mg/kg Mfp i.p.) is 7–8 times. The “striatal GDNF level, only Mfp, females” value in data set [6] (female rats, 3 x 5 mg/kg Mfp i.p., no Rtv) is “about 350 pg/mg”. Also, the “striatal GDNF level without Rtv co-application” value in data set [6] (female rats, 3 x 20 mg/kg Mfp i.p.) is on record as “about 2,000 pg/mg tissue”. The “striatal GDNF level after co-application of Rtv” value in data set [6] (female rats, 3 x 20 mg/kg Mfp i.p., Rtv 30 mg/kg i.p. or orally) is reported as “about 4,000 pg/mg tissue”. In addition, the “GDNF levels obtained with different solvent/carrier” value in data set [6] (female rats, oral 3 x 50 mg/kg pure substance in EtOH, sesame oil or ASV) is given as “very similar”. In addition, the “striatal GDNF level, Mfp + Rtv” value in data set [6] (male and female rats, 3 x 5 mg/kg Mfp i.p. + Rtv 30 mg/kg i.p.) is “about 4,000 pg/mg tissue”. Moreover, the “striatal GDNF level, only Mfp, males” value in data set [6] (male rats, 3 x 5 mg/kg Mfp i.p., no Rtv) was “about 100 pg/mg”. In addition, the “plasma Mfp levels in hAAG-expressing vs native animals at 50 h and 72 h” value in data set [7] (3 × 20 mg/kg Mfp i.p.) is given as “significantly elevated”. Also, in data set [7] (single oral dose 50 mg/kg), the “plasma Mfp level at 48 h, hAAG-expressing rats” value is “still at maximum level” and the “plasma Mfp level at 72 h, hAAG-expressing rats” value is recorded as “about one-third of maximum levels”. Also, in data set [8], the bioavailability in monkeys is given as 15%. In data set [9] (female, Wistar, rat, plasma, ip, AUC for plasma Mfp, − Rtv, female rats, 3 x 5 mg/kg Mfp i.p., without Rtv), this molecule returned an AUC of 8200 ng·h/mL. Besides, in [9] (native rats, single oral dose 50 mg/kg), the “drop of plasma Mfp levels at 48 h, native rats” value is listed as “over 80%”. Also, in data set [9] (rats, 3 × 5 mg/kg Mfp i.p.), the peak plasma levels result is “about 150 ng/mL” and the “peak plasma levels, corresponding molar concentration” value was “about 0.3 μM”. Further, the “Mfp levels in brain tissue, native vs hAAG-expressing animals” value in [10] is “equal”. Moreover, the “binding of Mfp by ORM1F2” value in [11] is “only low affinity”. For the same molecule, the solubility in water entry in [12] was “very low”. In data set [13], the “binding of Mfp by ORM1S” value is recorded as “high affinity”. Moreover, the “binding of Mfp by ORM2-derived AAG variants” value in data set [14] is “only weakly”.
`CC(C)c1nc(CN(C)C(=O)N[C@H](C(=O)N[C@@H](Cc2ccccc2)C[C@H](O)[C@H](Cc2ccccc2)NC(=O)OCc2cncs2)C(C)C)cs1` [Rtv, ritonavir]: in data set [15], the “metabolic effects: insulin resistance” value is “moderate increase”. In addition, in data set [6] (female rats, Rtv 30 mg/kg i.p. + 3 x 5 mg/kg Mfp i.p.), the “boost of GDNF induction by Rtv, female rats” value is recorded as “about 10 fold”. The “boost of GDNF induction by Rtv, male rats” value in [6] (male rats, Rtv 30 mg/kg i.p. + 3 x 5 mg/kg Mfp i.p.) is “about 40 fold”.
